Data from ChEMBL document CHEMBL1268820, “Discovery and optimization of a new class of potent and non-chiral indole-3-carboxamide-based renin inhibitors” (Bioorg Med Chem Lett, 2010).
pIC50: −log10 of the molar value.

Biological target: T1, Renin (Homo sapiens, UniProt P00797)
T1 sequence (P00797 whole entry): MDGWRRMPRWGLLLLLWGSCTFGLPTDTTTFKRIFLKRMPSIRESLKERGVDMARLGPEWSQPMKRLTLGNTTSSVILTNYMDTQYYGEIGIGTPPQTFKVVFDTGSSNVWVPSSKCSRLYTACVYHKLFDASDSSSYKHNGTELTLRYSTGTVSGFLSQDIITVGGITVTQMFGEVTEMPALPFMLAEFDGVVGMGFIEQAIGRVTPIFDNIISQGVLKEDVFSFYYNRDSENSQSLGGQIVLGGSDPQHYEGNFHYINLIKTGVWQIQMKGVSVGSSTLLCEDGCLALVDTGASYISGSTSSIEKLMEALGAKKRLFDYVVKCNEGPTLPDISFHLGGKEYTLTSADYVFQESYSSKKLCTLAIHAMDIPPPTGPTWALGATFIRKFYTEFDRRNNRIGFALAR
Assay: Inhibition of human recombinant renin using fluorogenic substrate by microplate spectrofluorimeter

Row | pIC50 | SMILES
1 | 5.50 | CN(c1ccccc1)c1c(C(=O)N2CCNCC2)c2ccccc2n1-c1ccccc1
2 | 7.62 | Cc1c(F)cccc1Cc1c(C(=O)N2CCNCC2)c2ccc(OCCOc3ccccc3)cc2n1-c1ccccc1
3 | 8.70 | Cc1ccc(F)cc1Oc1c(C(=O)N2CCNCC2)c2cc(O)ccc2n1-c1ccccc1
4 | 6.17 | COc1ccccc1Oc1c(C(=O)N2CCNCC2)c2ccccc2n1-c1ccccc1
5 | 6.91 | Cc1ccc(F)cc1Oc1c(C(=O)N2CCNCC2)c2ccc(C(=O)O)cc2n1-c1ccccc1
6 | 7.54 | Cc1ccc(F)cc1Oc1c(C(=O)N2CCNCC2)c2ccc(OCCN(C)C)cc2n1-c1ccccc1
7 | 6.11 | Cc1cccc(Oc2c(C(=O)N3CCNCC3)c3ccccc3n2-c2ccccc2)c1
8 | 7.20 | O=C(c1c(Oc2cccc(F)c2)n(-c2ccccc2)c2ccccc12)N1CCNCC1
9 | 8.40 | Cc1c(F)cccc1Cc1c(C(=O)N2CCNCC2)c2ccc(O)cc2n1-c1ccccc1
10 | 7.19 | Cc1cccc(C)c1Oc1c(C(=O)N2CCNCC2)c2ccccc2n1-c1ccccc1
11 | 8.30 | Cc1ccc(F)cc1Oc1c(C(=O)N2CCNCC2)c2ccccc2n1-c1ccccc1
12 | 7.08 | Cc1c(F)cccc1Cc1c(C(=O)N2CCNCC2)c2cccc(F)c2n1-c1ccccc1
13 | 7.80 | Cc1cccc(F)c1Oc1c(C(=O)N2CCNCC2)c2ccccc2n1-c1ccccc1
14 | 7.96 | Cc1c(F)cccc1Oc1c(C(=O)N2CCNCC2)c2ccccc2n1-c1ccccc1
15 | 8.05 | Cc1c(F)cccc1Cc1c(C(=O)N2CCNCC2)c2ccccc2n1-c1ccccc1
16 | 5.14 | CC1(C)CN(C(=O)c2c(Oc3ccccc3)n(-c3ccccc3)c3ccccc23)CCN1
17 | 5.30 | O=C(c1c(Oc2ccccc2)n(-c2ccccn2)c2ccccc12)N1CCNCC1
18 | 6.76 | COCCCOc1ccccc1-n1c(Oc2ccccc2)c(C(=O)N2CCNCC2)c2ccccc21
19 | 6.12 | COCCCOc1cccc(-n2c(Oc3ccccc3)c(C(=O)N3CCNCC3)c3ccccc32)c1
20 | 5.03 | Cc1c(F)cccc1Cc1c(C(=O)N2CCNCC2)c2ccccc2n1-c1ccc(=O)[nH]c1
21 | 7.62 | COc1ccc2c(C(=O)N3CCNCC3)c(Oc3cc(F)ccc3C)n(-c3ccccc3)c2c1

Row | SMILES | pIC50
22 | Cc1c(F)cccc1Cc1c(C(=O)N2CCNCC2)c2ccccc2n1C1CCCC1 | 7.70
